Source: US5639603A, “Synthesizing and screening molecular diversity” (Affymax Technologies N.V., priority 1993, dated 1997)
Where a SMILES comes first, the peptide text is derived from it. Where no end group is shown, it is not given here. [ ]: non-standard residue; d: D form.

Key:
[1] = molecular target: monoclonal antibody D32.39; assay: competition binding experiment with radiolabelled tracer peptide on D32.39-coated wells; details: competition with 33P-labelled tracer LRRASLGGGRRQFKVVT 50 pM; wells coated with D32.39 0.1 μg/mL; 2 hr at 4° C.; IC50 taken as close to Kd
Protocol: The binding affinities of various peptides for the monoclonal antibody D32.39 were measured in a competition binding experiment. […] The peptide mixtures were added to polystyrene wells coated with D32.39 (0.1 μg/mL). Samples were incubated 2 hr. at 4° C., the wells washed with PBS, and the radioactivity associated with each well was counted and used to generate a competitive binding curve. Under the conditions of the assay the IC50 should be close to the dissociation constant (Kd) for the peptide.

[2] = molecular target: anti-dynorphin B mAb D32.39; details: soluble hepta-peptide; see Cull et al.; cited from earlier work
[3] = test system: anti-dynorphin B mAb D32.39; assay: flow cytometry (FACS) staining of beads with mAb D32.39 and phycoerythrin-conjugated second antibody; type: binding, mouse; details: for blocking of D32.39 binding to library beads by preincubating the mAb with soluble peptide: flow cytometry, soluble peptide at final concentration 10 μM
Protocol: The binding of mAb D32.39 to control beads and to the bead library was analyzed by flow cytometry. […] By contrast, only a small fraction of the encoded library bound D32.39. Analysis of 10^5 events indicated ~2% of the library stained above background levels. […] The amplification reactions contained dUTP and uracil DNA glycosidase to prevent carryover contamination with soluble product from previous amplifications (see Longo et al., 1990, Gene 93: 125-128, incorporated herein by reference).
A portion of a library (typically 0.5-2 mg of beads) was suspended in blocking buffer (PBS, 1% BSA, 0.05% Tween-20) and incubated at room temperature for 1 hr. The beads were pelleted by centrifugation and resuspended in a solution of mAb D32.39 ([…] in blocking buffer). The suspension was incubated on ice for 30 min., pelleted by centrifugation, and washed with blocking buffer. The beads were then suspended in a solution of phycoerythrin-conjugated goat anti-mouse antibody (Molecular Probes) for 20 min. on ice. The beads were washed in blocking buffer and diluted in PBS for delivery into the fluorescence activated cell sorting (FACS) instrument (Becton Dickinson FACStar Plus). Beads which had bound the mAb D32.39 were identified by their acquired fluorescence. Individual beads from both the most brightly stained 0.17% of the library and from the region having the lowest fluorescence (ca. 98%) were sorted into PCR microfuge vials. Specific binding of D32.39 to the beads was blocked by preincubation of the mAb with the soluble peptide Ac-RQFKVVT-OH (SEQ ID NO:2) at a final concentration of 10 μM.

Kd [1]	Compound	also measured
410 nM	KQFKVTQT	
	RQFKVVT (RQFKVVT-NH2) [H-Arg-Gln-Phe-Lys-Val-Val-Thr-NH2, C-terminal seven amino acid fragment of the opioid peptide dynorphin B; positive control]	Kd [2]: ~1 nM; staining by mAb D32.39 of beads carrying the sequence ([3]; 10 μm beads carrying peptide and 69-mer oligonucleotide tag, blank beads unstained): strongly stained; blocking of D32.39 binding to library beads by preincubating the mAb with soluble peptide [3]: completely blocked
340 nM	CC(=O)N[C@@H](CCCCN)C(=O)N[C@@H](CCC(N)=O)C(=O)N[C@@H](Cc1ccccc1)C(=O)N[C@@H](CCCCN)C(=O)N[C@H](C(=O)N[C@H](C(=O)N[C@@H](CCCCN)C(=O)N[C@H](C(=O)O)[C@@H](C)O)[C@@H](C)O)C(C)C [KQFKVTKT] (Ac-KQFKVTKT-OH)	
370 nM	QQFKVVQT	
	CC(=O)N[C@@H](CCCNC(=N)N)C(=O)N[C@@H](CCC(N)=O)C(=O)N[C@@H](Cc1ccccc1)C(=O)N[C@@H](CCCCN)C(=O)N[C@H](C(=O)N[C@H](C(=O)N[C@H](C(=O)O)[C@@H](C)O)C(C)C)C(C)C [Ac-RQFKVVT-OH] (Ac-RQFKVVT-OH)	blocking of D32.39 binding to library beads by preincubating the mAb with soluble peptide [3]: blocked
0.29 nM	CC(=O)N[C@H](C(=O)N[C@@H](Cc1ccccc1)C(=O)N[C@@H](CCCNC(=N)N)C(=O)N[C@@H](CCC(N)=O)C(=O)N[C@@H](Cc1ccccc1)C(=O)N[C@@H](CCCCN)C(=O)N[C@H](C(=O)N[C@H](C(=O)O)[C@@H](C)O)C(C)C)[C@@H](C)O [TFRQFKVT] (Ac-TFRQFKVT-OH)	
1400 nM	CC(=O)N[C@H](C(=O)N[C@@H](Cc1ccccc1)C(=O)N[C@@H](CCCNC(=N)N)C(=O)N[C@@H](C(=O)N[C@@H](Cc1ccccc1)C(=O)N[C@@H](CCCNC(=N)N)C(=O)N[C@H](C(=O)N[C@H](C(=O)O)[C@@H](C)O)C(C)C)C(C)C)[C@@H](C)O [TFRvFRVT] (Ac-TFR[dV]FRVT-OH)	
16 nM	CC(=O)N[C@@H](CCC(N)=O)C(=O)N[C@@H](C(=O)N[C@@H](CCCNC(=N)N)C(=O)N[C@@H](CCC(N)=O)C(=O)N[C@@H](Cc1ccccc1)C(=O)N[C@@H](CCCCN)C(=O)N[C@H](C(=O)N[C@H](C(=O)O)[C@@H](C)O)[C@@H](C)O)C(C)C [QvRQFKTT] (Ac-Q[dV]RQFKTT-OH)	
560 nM	CC(=O)N[C@H](C(=O)N[C@@H](CCC(N)=O)C(=O)N[C@@H](Cc1ccccc1)C(=O)N[C@@H](CCCCN)C(=O)N[C@H](C(=O)N[C@H](C(=O)N[C@@H](CCCCN)C(=O)N[C@H](C(=O)O)[C@@H](C)O)[C@@H](C)O)C(C)C)[C@@H](C)O [TQFKVTKT] (Ac-TQFKVTKT-OH)	

Compound	Kd [1]	also measured
RQFRTVQT	76 nM	
TTRRFRVT	4.3 nM	
TVRQFKTT	8.8 nM	
